Experimental data published in patent publication US11352340B2, “Pyridine and pyridimine compounds as PI3K-gamma inhibitors” (Incyte Corporation, priority 2016, dated 2022).
pIC50: −log10 of the molar value. Counter-ions that a name gives are not always drawn. Like-named read-outs stand apart in the source and are kept apart here.

Key:
[1] = test system: Phosphorylated Ribosomal Protein S6 (RPS6) in THP-1 cells; experiment: THP-1 RPS6 ELISA Assay; assay type: cell-based, Human; conditions: MCP-1 stimulated, phospho-RPS6 ELISA, read-out: THP p-RPS6 ELISA IC50
Summary of the method: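 Serum-starved THP-1 cells (2×10^5/well, RPMI) preincubated with compound 2 h at 37° C, then stimulated with 10 nM MCP-1 for 15 min. Lysates assayed by phospho-RPS6 ELISA, absorbance 450 nm (540 nm correction); IC50 from percent inhibition versus log concentration.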

[2] = biological target: PI3Kδ (p110δ/p85α) Recombinant Human Protein (Homo sapiens (Human), UniProt O00329); experiment: PI3Kδ Scintillation Proximity Assay; assay type: biochemical; conditions: read-out: PI3K-delta SPA IC50
Sequence of PI3Kδ (p110δ/p85α) Recombinant Human Protein (O00329 whole entry): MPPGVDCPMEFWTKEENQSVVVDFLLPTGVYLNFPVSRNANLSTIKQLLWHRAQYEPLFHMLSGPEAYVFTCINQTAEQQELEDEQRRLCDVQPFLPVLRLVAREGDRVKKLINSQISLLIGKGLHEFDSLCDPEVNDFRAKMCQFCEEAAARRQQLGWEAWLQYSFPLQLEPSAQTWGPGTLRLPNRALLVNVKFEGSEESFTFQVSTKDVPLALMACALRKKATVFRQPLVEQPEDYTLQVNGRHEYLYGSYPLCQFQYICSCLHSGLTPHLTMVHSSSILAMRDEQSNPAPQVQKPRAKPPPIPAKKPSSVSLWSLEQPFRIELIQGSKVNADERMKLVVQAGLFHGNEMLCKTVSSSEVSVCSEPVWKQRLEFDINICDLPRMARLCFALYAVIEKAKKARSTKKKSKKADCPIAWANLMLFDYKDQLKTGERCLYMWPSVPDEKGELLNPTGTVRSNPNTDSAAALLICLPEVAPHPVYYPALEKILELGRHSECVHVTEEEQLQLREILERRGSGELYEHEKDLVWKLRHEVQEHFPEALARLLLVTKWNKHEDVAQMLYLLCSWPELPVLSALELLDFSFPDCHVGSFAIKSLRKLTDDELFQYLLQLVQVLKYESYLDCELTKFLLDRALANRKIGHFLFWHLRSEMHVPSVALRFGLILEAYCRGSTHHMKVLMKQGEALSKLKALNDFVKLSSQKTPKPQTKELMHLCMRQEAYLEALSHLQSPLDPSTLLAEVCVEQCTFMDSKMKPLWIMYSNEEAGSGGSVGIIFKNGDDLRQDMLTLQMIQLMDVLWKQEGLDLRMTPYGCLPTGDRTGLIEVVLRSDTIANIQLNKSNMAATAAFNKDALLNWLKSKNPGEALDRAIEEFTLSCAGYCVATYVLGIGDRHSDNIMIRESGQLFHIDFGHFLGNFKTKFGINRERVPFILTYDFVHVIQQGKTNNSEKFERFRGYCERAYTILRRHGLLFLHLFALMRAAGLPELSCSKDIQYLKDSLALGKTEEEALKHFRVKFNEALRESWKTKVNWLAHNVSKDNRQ
Sequence of PI3Kδ (p110δ/p85α) Recombinant Human Protein (P27986 whole entry partner): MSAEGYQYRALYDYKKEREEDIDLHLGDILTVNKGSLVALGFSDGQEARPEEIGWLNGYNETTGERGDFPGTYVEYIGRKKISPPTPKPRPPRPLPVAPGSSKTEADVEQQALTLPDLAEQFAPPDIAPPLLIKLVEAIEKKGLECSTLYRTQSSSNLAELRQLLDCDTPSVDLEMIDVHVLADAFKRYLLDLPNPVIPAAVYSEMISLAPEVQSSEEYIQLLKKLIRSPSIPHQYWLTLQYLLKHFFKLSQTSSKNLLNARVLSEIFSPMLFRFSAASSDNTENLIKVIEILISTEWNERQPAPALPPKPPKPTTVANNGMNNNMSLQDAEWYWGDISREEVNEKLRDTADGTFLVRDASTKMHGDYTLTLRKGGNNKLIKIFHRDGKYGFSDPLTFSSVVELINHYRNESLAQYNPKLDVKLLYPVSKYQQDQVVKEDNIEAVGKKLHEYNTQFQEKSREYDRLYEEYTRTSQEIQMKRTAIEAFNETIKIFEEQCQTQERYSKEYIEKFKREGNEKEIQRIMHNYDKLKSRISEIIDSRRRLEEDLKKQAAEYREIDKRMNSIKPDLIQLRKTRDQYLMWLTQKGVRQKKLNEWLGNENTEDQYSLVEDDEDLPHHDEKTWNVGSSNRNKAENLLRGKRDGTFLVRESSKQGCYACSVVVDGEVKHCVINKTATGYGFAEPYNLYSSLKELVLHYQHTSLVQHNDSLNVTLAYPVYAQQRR
Summary of the method: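 Kinase reaction run at room temperature in 20 mM MOPS pH 6.7, 10 mM MgCl2, 5 mM DTT, 0.03% CHAPS with 20 μM PIP2, 2 μM ATP plus [γ-33P]ATP, 3.4 nM enzyme, 2% DMSO; 120 min. Quenched with WGA SPA beads/EDTA, counted by scintillation; IC50 from % solvent-control activity vs log concentration.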

[3] = biological target: PI3Kγ (p110γ) Recombinant Human Protein (Homo sapiens (Human), UniProt P48736); experiment: PI3K-γ Scintillation Proximity Assay; assay type: biochemical; conditions: read-out: PI3K-gamma SPA IC50
Sequence of PI3Kγ (p110γ) Recombinant Human Protein (P48736 whole entry): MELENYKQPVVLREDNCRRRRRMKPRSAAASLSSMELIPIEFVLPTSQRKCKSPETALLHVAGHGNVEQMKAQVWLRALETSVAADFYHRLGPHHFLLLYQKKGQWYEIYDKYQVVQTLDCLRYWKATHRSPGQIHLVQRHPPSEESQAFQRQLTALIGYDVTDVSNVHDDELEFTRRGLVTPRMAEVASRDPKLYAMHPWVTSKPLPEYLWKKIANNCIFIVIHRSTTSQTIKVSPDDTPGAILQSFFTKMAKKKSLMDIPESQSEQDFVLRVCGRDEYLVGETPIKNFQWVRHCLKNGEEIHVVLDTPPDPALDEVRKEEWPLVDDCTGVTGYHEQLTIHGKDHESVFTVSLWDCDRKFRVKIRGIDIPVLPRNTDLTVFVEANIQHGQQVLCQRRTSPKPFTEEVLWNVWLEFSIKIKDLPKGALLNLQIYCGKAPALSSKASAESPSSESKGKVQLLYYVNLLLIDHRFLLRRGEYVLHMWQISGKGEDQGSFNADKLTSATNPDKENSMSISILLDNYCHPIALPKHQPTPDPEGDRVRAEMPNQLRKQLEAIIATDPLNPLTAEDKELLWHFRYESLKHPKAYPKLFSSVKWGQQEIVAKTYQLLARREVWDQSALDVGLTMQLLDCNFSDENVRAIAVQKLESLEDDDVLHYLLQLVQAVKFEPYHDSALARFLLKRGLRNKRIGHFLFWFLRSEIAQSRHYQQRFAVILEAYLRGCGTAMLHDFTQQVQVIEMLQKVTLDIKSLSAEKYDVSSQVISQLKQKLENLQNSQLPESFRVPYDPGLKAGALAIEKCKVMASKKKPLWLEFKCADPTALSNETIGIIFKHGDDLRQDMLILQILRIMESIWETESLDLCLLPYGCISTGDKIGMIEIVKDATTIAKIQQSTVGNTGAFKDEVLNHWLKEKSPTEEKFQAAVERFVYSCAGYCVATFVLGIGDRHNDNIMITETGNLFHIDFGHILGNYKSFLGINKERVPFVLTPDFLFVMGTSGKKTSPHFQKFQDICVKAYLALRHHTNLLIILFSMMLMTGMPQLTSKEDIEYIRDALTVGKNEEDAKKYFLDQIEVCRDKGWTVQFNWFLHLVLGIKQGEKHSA
Summary of the method: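 Recombinant human p110γ (13 nM) with 20 μM PIP2 and 2 μM ATP plus 0.5 μCi [γ-33P]ATP in 20 mM MOPS pH 6.7, 10 mM MgCl2, 5 mM DTT, 0.03% CHAPS, 2% DMSO, 120 min at room temperature. Product captured on WGA SPA beads and counted; IC50 fitted from % of solvent control versus log concentration.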

| Structure (SMILES) | pIC50 ([1]; Homo sapiens) | pIC50 [2] | pIC50 [3] | pIC50 [1] |
| --- | --- | --- | --- | --- |
| Cc1nc(-c2cc(-c3cncc(C(=O)N(C)CC4(CO)CC4)c3)ccn2)[nH]c1C [Example 205, 2′-(4,5-Dimethyl-1H-imidazol-2-yl)-N-{[1-(hydroxymethyl)cyclopropyl]methyl}-N-methyl-3,4′-bipyridine-5-carboxamide trifluoroacetate salt] | 6.00 to 6.52 | ≥ 7.00 | ≥ 7.30 |  |
| Cc1nc(-c2cc(-c3cncc(C(=O)N4CCC5(CC5)C4)c3)ccn2)[nH]c1C [Example 212, 5-(5-Azaspiro[2.4]hept-5-ylcarbonyl)-2′-(4,5-dimethyl-1H-imidazol-2-yl)-3,4′-bipyridine trifluoroacetate salt] | ≥ 6.52 | ≥ 7.30 | ≥ 7.30 |  |
| CO[C@H]1CCN(C(=O)c2cncc(-c3ccnc(-c4nc(C)c(C)[nH]4)c3)c2)C1 [Example 212B, 2′-(4,5-Dimethyl-1H-imidazol-2-yl)-5-{[(3S)-3-methoxypyrrolidin-1-yl]carbonyl}-3,4′-bipyridine trifluoroacetate salt] | 6.00 to 6.52 | ≥ 7.00 | ≥ 7.30 |  |
| Cc1nc(-c2cc(C3=CCCN(S(=O)(=O)c4ccccc4)C3)ccn2)[nH]c1C [Example 214, 2′-(4,5-Dimethyl-1H-imidazol-2-yl)-1-(phenylsulfonyl)-1,2,5,6-tetrahydro-3,4′-bipyridine Trifluoroacetate Salt] | < 5.30 | ≥ 6.30 | ≥ 7.30 |  |
| Cc1nc(-c2cc(-c3cncc(N4CC[C@@H](O)C4)c3)ccn2)[nH]c1C [Example 231, (3R)-1-[2′-(4,5-Dimethyl-1H-imidazol-2-yl)-3,4′-bipyridin-5-yl]pyrrolidin-3-ol] | 6.00 to 6.52 | ≥ 7.00 | ≥ 7.30 |  |
| Cc1nc(-c2cc(-c3cncc(N4CC[C@H](O)C4)c3)ccn2)[nH]c1C [Example 232, (3S)-1-[2′-(4,5-Dimethyl-1H-imidazol-2-yl)-3,4′-bipyridin-5-yl]pyrrolidin-3-ol] | 6.00 to 6.52 | ≥ 6.30 | ≥ 7.00 |  |
| Cc1nc(-c2cc(-c3cncc(C4=CCN(S(C)(=O)=O)C4)c3)ccn2)[nH]c1C [Example 237, 2′-(4,5-Dimethyl-1H-imidazol-2-yl)-5-[1-(methylsulfonyl)-2,5-dihydro-1H-pyrrol-3-yl]-3,4′-bipyridine] | ≥ 6.52 | ≥ 7.30 | ≥ 7.30 |  |
| Cc1[nH]c(-c2cc(-c3cncc(S(C)(=O)=O)c3)ccn2)nc1C(=O)NC1CCCC1 [Example 243, N-Cyclopentyl-5-methyl-2-[5-(methylsulfonyl)-3,4′-bipyridin-2′-yl]-1H-imidazole-4-carboxamide] | ≥ 6.52 | ≥ 7.30 | ≥ 7.30 |  |
| Cc1[nH]c(-c2cc(-c3cncc(S(C)(=O)=O)c3)ccn2)nc1C(=O)N1CCOCC1 [Example 244, 2′-[5-Methyl-4-(morpholin-4-ylcarbony1)-1H-imidazol-2-yl]-5-(methylsulfony1)-3,4′-bipyridine] |  | ≥ 7.30 | ≥ 7.00 | < 5.30 |
| Cc1[nH]c(-c2cc(-c3cncc(S(C)(=O)=O)c3)ccn2)nc1C(=O)N1CC[C@@H](O)C1 [Example 245] |  | ≥ 7.30 | ≥ 7.30 | < 5.30 |
| Cc1[nH]c(-c2cc(-c3cncc(S(C)(=O)=O)c3)ccn2)nc1C(=O)N1CC(C#N)C1 [Example 248, 1-({5-Methyl-2-[5-(methylsulfonyl)-3,4′-bipyridin-2′-yl]-lH-imidazol-4-yl}carbonyl)azetidine-3-carbonitrile] |  | ≥ 7.30 | ≥ 7.30 | 5.30 to 6.00 |
| Cc1[nH]c(-c2cc(-c3cncc(S(C)(=O)=O)c3)ccn2)nc1C(N)=O [Example 249, 5-Methyl-2-[5-(methylsulfonyl)-3,4′-bipyridin-2′-yl]-1H-imidazole-4-carboxamide trifluoroacetate salt] | 5.30 to 6.00 | ≥ 7.30 | ≥ 7.30 |  |
| CNC(=O)c1nc(-c2cc(-c3cncc(S(C)(=O)=O)c3)ccn2)[nH]c1C [Example 250, N,5-Dimethyl-2-[5-(methylsulfonyl)-3,4′-bipyridin-2′-yl]-lH-imidazole-4-carboxamide trifluoroacetate salt] |  | ≥ 7.30 | ≥ 7.30 | 6.00 to 6.52 |
| CCNC(=O)c1nc(-c2cc(-c3cncc(S(C)(=O)=O)c3)ccn2)[nH]c1C [Example 252, N-Ethyl-5-methyl-2-[5-(methylsulfonyl)-3,4′-bipyridin-2′-yl]-1H-imidazole-4-carboxamide trifluoroacetate salt] | ≥ 6.52 | ≥ 7.30 | ≥ 7.30 |  |
| Cc1[nH]c(-c2cc(-c3cncc(S(C)(=O)=O)c3)ccn2)nc1C(=O)N[C@H]1CCOC1 [Example 255, 5-Methyl-2-[5-(methylsulfonyl)-3,4′-bipyridin-2′-yl]-N-[(3,S)-tetrahydrofuran-3-yl]-lH-imidazole-4-carboxamide trifluoroacetate salt] |  | ≥ 7.30 | ≥ 7.30 | 6.00 to 6.52 |
| Cc1[nH]c(-c2cc(-c3cncc(S(C)(=O)=O)c3)ccn2)nc1C(=O)N[C@@H]1CCOC1 [Example 256, 5-Methyl-2-[5-(methylsulfonyl)-3,4′-bipyridin-2′-yl]-N-[(3R)-tetrahydrofuran-3-yl]-1H-imidazole-4-carboxamide trifluoroacetate salt] | 5.30 to 6.00 | ≥ 7.30 | ≥ 7.30 |  |

Further lines, with some results ahead:

| pIC50 ([1]; Homo sapiens) | pIC50 [2] | pIC50 [3] | Structure (SMILES) | pIC50 [1] |
| --- | --- | --- | --- | --- |
| 6.00 to 6.52 | ≥ 7.00 | ≥ 7.30 | Cc1nc(-c2cc(-c3cncc(C(=O)N(C)CC#N)c3)ccn2)[nH]c1C [Example 203, N-(Cyanomethyl)-2′-(4,5-dimethyl-1H-imidazol-2-yl)-N-methyl-3,4′-bipyridine-5-carboxamide] |  |
| 5.30 to 6.00 | ≥ 7.00 | ≥ 7.00 | Cc1nc(-c2cc(-c3cncc(C(=O)NCC4CCC4)c3)ccn2)[nH]c1C [Example 206, N-(Cyclobutylmethyl)-2′-(4,5-dimethyl-1H-imidazol-2-yl)-3,4′-bipyridine-5-carboxamide trifluoroacetate salt] |  |
| 5.30 to 6.00 | ≥ 6.30 | ≥ 7.30 | Cc1nc(-c2cc(-c3cncc(C(=O)NCC4CCCC4)c3)ccn2)[nH]c1C [Example 207, N-(Cyclopentylmethyl)-2′-(4,5-dimethyl-1H-imidazol-2-yl)-3,4′-bipyridine-5-carboxamide trifluoroacetate salt] |  |
| 5.30 to 6.00 | ≥ 7.00 | ≥ 7.30 | Cc1nc(-c2cc(-c3cncc(C(=O)NC(C)(C)C)c3)ccn2)[nH]c1C [Example 208, N-(tert-Butyl)-2′-(4,5-dimethyl-1H-imidazol-2-yl)-3,4′-bipyridine-5-carboxamide trifluoroacetate salt] |  |
| ≥ 6.52 | ≥ 7.30 | ≥ 7.30 | CCC1CCN(C(=O)c2cncc(-c3ccnc(-c4nc(C)c(C)[nH]4)c3)c2)C1 (stereo not drawn) [Example 211, 2′-(4,5-Dimethyl-1H-imidazol-2-yl)-5-[(3-ethylpyrrolidin-1-yl)carbonyl]-3,4′-bipyridine trifluoroacetate salt] |  |
| < 5.30 | ≥ 6.30 | ≥ 7.00 | Cc1nc(-c2cc(C3=CCCN(S(=O)(=O)c4ccc(Cl)cc4)C3)ccn2)[nH]c1C [Example 221, 4-(1-(4-Chlorophenylsulfonyl)-1,2,5,6-tetrahydropyridin-3-yl)-2-(4,5-dimethyl-1H-imidazol-2-yl)pyridine trifluoroacetate salt] |  |
| 5.30 to 6.00 | ≥ 6.30 | ≥ 7.30 | Cc1nc(-c2cc(-c3cncc(Nc4ccccc4)c3)ccn2)[nH]c1C [Example 233, 2′-(4,5-Dimethyl-1H-imidazol-2-yl)-N-phenyl-3,4′-bipyridin-5-amine] |  |
| 6.00 to 6.52 | ≥ 7.30 | ≥ 7.00 | CCOC(=O)c1nc(-c2cc(-c3cncc(S(C)(=O)=O)c3)ccn2)[nH]c1C [Example 241, Ethyl 5-methyl-2-[5-(methylsulfonyl)-3,4′-bipyridin-2′-yl]-1H-imidazole-4-carboxylate] |  |
|  | ≥ 7.30 | ≥ 7.30 | Cc1[nH]c(-c2cc(-c3cncc(S(C)(=O)=O)c3)ccn2)nc1C(=O)N1CC(O)C1 [Example 247, l-({5-Methyl-2-[5-(methylsulfonyl)-3,4′-bipyridin-2′-yl]-1H-imidazol-4-yl}carbonyl)azetidin-3-ol] | < 5.30 |
| ≥ 6.52 | ≥ 7.30 | ≥ 7.30 | Cc1[nH]c(-c2cc(-c3cncc(S(C)(=O)=O)c3)ccn2)nc1C(=O)NC(C)C [Example 253, N-Isopropyl-5-methyl-2-[5-(methylsulfonyl)-3,4′-bipyridin-2′-yl]-1H-imidazole-4-carboxamide trifluoroacetate salt] |  |
| ≥ 6.52 | ≥ 7.30 | ≥ 7.30 | Cc1[nH]c(-c2cc(-c3cncc(S(C)(=O)=O)c3)ccn2)nc1C(=O)NC1CCOCC1 [Example 254, 5-Methyl-2-[5-(methylsulfonyl)-3,4′-bipyridin-2′-yl]-N-(tetrahydro-2H-pyran-4-yl)-1H-imidazole-4-carboxamide trifluoroacetate salt] |  |
